The source of these data is publication PMC6264464, “Synthesis and Antifungal Activity of Novel Sulfone Derivatives Containing 1,3,4-Oxadiazole Moieties” (Molecules, 2011).

≈ marks a conversion by molar mass, not a printed value. Where two headings read alike, the source gives them in different places.

Data set [1] relates to F. oxysporum. Description: Mycelial growth rate / poison plate antifungal test. Conditions: Fusarium oxysporum; for inhibition at 50 µg/mL: 120 h, read-out: Inhibition (%) F. oxysporum; for EC50: read-out: EC50 (µg/mL) F. oxysporum. In kind it is cell-based.
Data set [2] deals with C. mandshurica. The description is as above. Type of data set: cell-based, Cytospora mandshurica. The following applies: Cytospora; for inhibition at 50 µg/mL: 120 h, read-out: Inhibition (%) C. mandshurica; for EC50: read-out: EC50 (µg/mL) C. mandshurica.
Data set [3] concerns C. gloeosporioides. Description: microbe, parasite or virus in culture. In kind it is cell-based. Conditions: Colletotrichum gloeosporioides, read-out: EC50 (µg/mL) C. gloeosporioides.
Data set [4] relates to S. sclerotiorum. Description: microbe, parasite or virus in culture. The following applies: Sclerotinia sclerotiorum, read-out: EC50 (µg/mL) S. sclerotiorum. In kind it is cell-based.
The test system of data set [5] is R. solani. Description: microbe, parasite or virus in culture. The following applies: Rhizoctonia solani, read-out: EC50 (µg/mL) R. solani. Type of data set: cell-based.
Data set [6] concerns B. cinerea. Kind of data set: microbe, parasite or virus in culture. Type of data set: cell-based. Conditions: Botrytis cinerea, read-out: EC50 (µg/mL) B. cinerea.
Data set [7] relates to P. infestans. Description: microbe, parasite or virus in culture. Type of data set: cell-based. Conditions: Phytophthora infestans, read-out: EC50 (µg/mL) P. infestans.
Data set [8] relates to T. cucumeris. Description: microbe, parasite or virus in culture. The following applies: Thanatephorus cucumeris, read-out: EC50 (µg/mL) T. cucumeris. Type of data set: cell-based.
[9] abbreviates: at 50 µg/mL, PDA, 27 ± 1 °C, 5 days.

What is called inhibition is the relative decrease from the control value, in per cent. What is called melting point is the temperature of the solid-liquid transition.

The molecule `CS(=O)(=O)c1nnc(-c2ccccc2C(F)(F)F)o1` [Compound 5a, 2-(Methylsulfonyl)-5-(2-(trifluoromethyl)phenyl)-1,3,4-oxadiazole] registered a melting point of 102 to 104 °C. Further, in [1] (setting [9]), the inhibition at 50 µg/mL came to 71.1 ± 7.7%. Moreover, the inhibition at 50 µg/mL in [2] (setting [9]) stood at 68.3 ± 9.3%.

In turn, `CS(=O)(=O)c1nnc(-c2ccc(F)c(F)c2F)o1` [Compound 5b, 2-(Methylsulfonyl)-5-(2,3,4-trifluorophenyl)-1,3,4-oxadiazole] had a melting point of 114 to 115 °C. In [1] (setting [9]), the inhibition at 50 µg/mL turned out to be 97.5 ± 3.3%. The inhibition at 50 µg/mL in [2] (setting [9]) amounted to 89.7 ± 3.1%.

`CS(=O)(=O)c1nnc(-c2ccncc2)o1` [Compound 5c, 2-(Methylsulfonyl)-5-(pyridin-4-yl)-1,3,4-oxadiazole] came in with a melting point of 134 to 136 °C. For the same molecule, in [1] (setting [9]), the inhibition at 50 µg/mL turned out to be 72.6 ± 6.4%. The inhibition at 50 µg/mL in data set [2] (setting [9]) worked out at 78.2 ± 4.7%.

`CS(=O)(=O)c1nnc(-c2ccccc2F)o1` [Compound 5d, 2-(Methylsulfonyl)-5-(2-fluorophenyl)-1,3,4-oxadiazole]: the melting point lay in the range of 97 to 99 °C. Further, the inhibition at 50 µg/mL in data set [1] (setting [9]) came out at 70.1 ± 4.9%. The EC50 in data set [1] was 29.1 ± 7.82 µg/mL (≈ 120 µM). The EC50 in data set [3] was 20.2 ± 6.65 µg/mL (≈ 83.5 µM). Also, the EC50 in data set [4] stood at 8.49 ± 3.51 µg/mL (≈ 35 µM). Further, the inhibition at 50 µg/mL in data set [2] (setting [9]) stood at 64 ± 1.3%. In addition, the EC50 in data set [2] came out at 79.9 ± 14.8 µg/mL (≈ 330 µM). Moreover, the EC50 in data set [5] came out at 6.43 ± 1.34 µg/mL (≈ 26.5 µM). Further, in [6], the EC50 turned out to be 5.21 ± 2.05 µg/mL (≈ 21.5 µM). For the same molecule, the EC50 in data set [7] came to 14.7 ± 3.23 µg/mL (≈ 60.8 µM). Besides, the EC50 in data set [8] came to 10 ± 5.64 µg/mL (≈ 41.3 µM).

`CS(=O)(=O)c1nnc(-c2c(F)cccc2F)o1` [Compound 5e, 2-(Methylsulfonyl)-5-(2,6-difluorophenyl)-1,3,4-oxadiazole] gave a melting point of 131 to 132 °C. Also, in data set [1] (setting [9]), the inhibition at 50 µg/mL was 98.8 ± 8%. In addition, the EC50 in data set [1] came out at 65.8 ± 7.04 µg/mL (≈ 253 µM). Also, in data set [3], the EC50 worked out at 26.1 ± 7.32 µg/mL (≈ 100 µM). Besides, the EC50 in data set [4] is 15 ± 6.83 µg/mL (≈ 57.5 µM). In data set [2] (setting [9]), the inhibition at 50 µg/mL is over 90%. In addition, in data set [2], the EC50 came to 38.3 ± 3.21 µg/mL (≈ 147 µM). Also, in data set [5], the EC50 was determined as 21.2 ± 4.12 µg/mL (≈ 81.6 µM). The EC50 in [6] amounted to 8.25 ± 0.85 µg/mL (≈ 31.7 µM). Further, in data set [7], the EC50 worked out at 59.5 ± 16.8 µg/mL (≈ 229 µM). For the same molecule, in data set [8], the EC50 came to 23.4 ± 4.76 µg/mL (≈ 89.7 µM).

The molecule `CS(=O)(=O)c1nnc(-c2c(Cl)cccc2Cl)o1` [Compound 5f, 2-(Methylsulfonyl)-5-(2,6-dichlorophenyl)-1,3,4-oxadiazole] came in with a melting point of 126 to 128 °C. The inhibition at 50 µg/mL in [1] (setting [9]) came out at 94 ± 4.1%. Moreover, the EC50 in data set [1] turned out to be 85.4 ± 17.9 µg/mL (≈ 291 µM). Besides, the EC50 in data set [3] is 33.1 ± 8.29 µg/mL (≈ 113 µM). In data set [4], the EC50 worked out at 17.2 ± 4.72 µg/mL (≈ 58.7 µM). Moreover, the inhibition at 50 µg/mL in [2] (setting [9]) is over 90%. Besides, the EC50 in [2] was found to be 98.2 ± 8.35 µg/mL (≈ 335 µM). In [5], the EC50 was determined as 16.2 ± 9.76 µg/mL (≈ 55.1 µM). For the same molecule, the EC50 in data set [6] was 8.03 ± 0.86 µg/mL (≈ 27.4 µM). For the same molecule, the EC50 in data set [7] was found to be 42.9 ± 7.38 µg/mL (≈ 146 µM). In data set [8], the EC50 came out at 25.2 ± 2.34 µg/mL (≈ 86.1 µM).

On to `COc1ccccc1-c1nnc(S(C)(=O)=O)o1` [Compound 5g, 2-(Methylsulfonyl)-5-(2-methoxyphenyl)-1,3,4-oxadiazole], for which the melting point lay in the range of 127 to 129 °C. For the same molecule, the inhibition at 50 µg/mL in [1] (setting [9]) turned out to be 89.6 ± 4.5%. Besides, in [2] (setting [9]), the inhibition at 50 µg/mL is over 90%.

Molecule `Cc1ccccc1-c1nnc(S(C)(=O)=O)o1` [Compound 5h, 2-(Methylsulfonyl)-5-(2-methylphenyl)-1,3,4-oxadiazole] yielded a melting point of 117 to 119 °C. For the same molecule, in data set [1] (setting [9]), the inhibition at 50 µg/mL amounted to 74.6 ± 8.5%. The inhibition at 50 µg/mL in data set [2] (setting [9]) was over 90%.

`CS(=O)(=O)c1nnc(-c2ccccc2Br)o1` [Compound 5i, 2-(Methylsulfonyl)-5-(2-bromophenyl)-1,3,4-oxadiazole] came in with a melting point of 134 to 135 °C. The inhibition at 50 µg/mL in [1] (setting [9]) amounted to 77 ± 6.6%. Also, the EC50 in [1] was determined as 29.9 ± 1.31 µg/mL (≈ 98.6 µM). In addition, the EC50 in [3] was determined as 21.9 ± 2.93 µg/mL (≈ 72.4 µM). Also, the EC50 in data set [4] amounted to 14.8 ± 1.02 µg/mL (≈ 48.8 µM). Besides, the inhibition at 50 µg/mL in [2] (setting [9]) was 79.6 ± 7.1%. Further, the EC50 in data set [2] came to 44.5 ± 3.56 µg/mL (≈ 147 µM). Further, the EC50 in data set [5] is 20 ± 1.28 µg/mL (≈ 66 µM). In addition, the EC50 in data set [6] turned out to be 21 ± 2.01 µg/mL (≈ 69.3 µM). In [7], the EC50 was 49.6 ± 9.39 µg/mL (≈ 164 µM). Further, the EC50 in data set [8] turned out to be 24.8 ± 4.29 µg/mL (≈ 81.7 µM).

`CS(=O)(=O)c1nnc(-c2c(F)cccc2Cl)o1` [Compound 5j, 2-(Methylsulfonyl)-5-(2-chloro-6-fluorophenyl)-1,3,4-oxadiazole]: the melting point was in the range of 121 to 123 °C. In data set [1] (setting [9]), the inhibition at 50 µg/mL amounted to 67.1 ± 4.8%. The inhibition at 50 µg/mL in [2] (setting [9]) is 64 ± 2.6%.

Take `Cc1cc(O)no1` [Hymexazol, reference compound]: the inhibition at 50 µg/mL turned out to be 58.4 ± 0.8% in data set [1] and 57.3 ± 0.3% in data set [2]. Besides, the EC50 came to 27.9 ± 1.02 µg/mL (≈ 282 µM) in [1]; 37.6 ± 3.16 µg/mL (≈ 379 µM) in data set [3]; 7.76 ± 2.98 µg/mL (≈ 78.3 µM) in [4]; 39.3 ± 2.79 µg/mL (≈ 396 µM) in [2]; 38.6 ± 0.45 µg/mL (≈ 390 µM) in data set [5]; 25.2 ± 6.12 µg/mL (≈ 255 µM) in [6]. Moreover, the EC50 was 26.5 ± 1.42 µg/mL (≈ 267 µM) in data set [7] and 32.2 ± 5.82 µg/mL (≈ 325 µM) in data set [8].
